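Cells were grown in 96-well plates and exposed to each compound for 48 hours at five concentrations; endpoints were interpolated linearly between bracketing concentrations, or set to the highest concentration if not reached. Here, GI50 denotes the concentration required for 50% inhibition of growth. TGI marks complete inhibition of growth.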
Columns and labels:
Test in all cases: DTP human tumour cell line panel, 48 h
[1] = test system: 786-0 renal
[2] = test system: A498 renal
[3] = test system: A549 NSCLC
[4] = test system: ACHN renal
[5] = test system: BT-549 breast
[6] = test system: CAKI-1 renal
[7] = test system: CCRF-CEM leukemia
[8] = test system: COLO 205 colon
[9] = test system: DU-145 prostate
[10] = test system: HCC-2998 colon
[11] = test system: HCT-116 colon
[12] = test system: HCT-15 colon
[13] = test system: HL-60(TB) leukemia
[14] = test system: HOP-62 NSCLC
[15] = test system: HOP-92 NSCLC
[16] = test system: HS 578T breast
[17] = test system: HT29 colon
[18] = test system: IGROV1 ovarian
[19] = test system: K-562 leukemia
[20] = test system: KM12 colon
[21] = test system: LOX IMVI melanoma
[22] = test system: M14 melanoma
[23] = test system: MALME-3M melanoma
[24] = test system: MCF7 breast
[25] = test system: MDA-MB-231 breast
[26] = test system: MDA-MB-435
[27] = test system: MOLT-4 leukemia
[28] = test system: NCI-H226 lung
[29] = test system: NCI-H23 lung
[30] = test system: NCI-H460 lung
[31] = test system: NCI-H522 lung
[32] = test system: OVCAR-3 ovarian
[33] = test system: OVCAR-4 ovarian
[34] = test system: OVCAR-5 ovarian
[35] = test system: OVCAR-8 ovarian
[36] = test system: PC-3 prostate
[37] = test system: RPMI-8226 leukemia
[38] = test system: RXF 393 renal
[39] = test system: SF-268 CNS
[40] = test system: SF-295 CNS
[41] = test system: SF-539 CNS
[42] = test system: SK-MEL-2 melanoma
[43] = test system: SK-MEL-28 melanoma
[44] = test system: SK-MEL-5 melanoma
[45] = test system: SK-OV-3 ovarian
[46] = test system: SN12C renal
[47] = test system: SNB-19 CNS
[48] = test system: SNB-75 CNS
[49] = test system: SR leukemia
[50] = test system: SW-620 colon
[51] = test system: T-47D breast
[52] = test system: TK-10 renal
[53] = test system: U251 CNS
[54] = test system: UACC-257 melanoma
[55] = test system: UACC-62 melanoma
[56] = test system: UO-31 renal

`COc1ccc(C(=O)/C=C/c2cc(-c3ccc4c(c3)OCO4)n[nH]2)cc1OC` gave a GI50 [1] of 3.12 µM, a TGI [1] of 11.4 µM and a GI50 [2] of 1.55 µM. It also gave a TGI [2] of 4.23 µM, a GI50 [3] of 2.7 µM and a TGI [3] of 15.8 µM. The GI50 [4] was 3.49 µM, the TGI [4] was 56.5 µM and the GI50 [5] was 1.97 µM. The TGI [5] was 4.21 µM, the GI50 [6] was 1.9 µM and the TGI [6] was 4.33 µM. For the same molecule, the GI50 [7] was 2.52 µM, the TGI [7] was 9.58 µM and the GI50 [8] was 3.84 µM. It also gave a TGI [8] of 14 µM, a GI50 [9] of 1.87 µM and a TGI [9] of 4.27 µM. The GI50 [10] was 4.99 µM, the TGI [10] was 17.3 µM and the GI50 [11] was 2.43 µM. It also gave a TGI [11] of 7.99 µM, a GI50 [12] of 2.81 µM and a TGI [12] greater than 100 µM. The GI50 [13] was 2.82 µM, the TGI [13] was 11.8 µM and the GI50 [14] was 2.08 µM. The TGI [14] was 5.6 µM, the GI50 [15] was 2.16 µM and the TGI [15] was 8.11 µM. The GI50 [16] was 2.69 µM, the TGI [16] was 8.21 µM and the GI50 [17] was 2.98 µM. The TGI [17] was 11.3 µM, the GI50 [18] was 2.79 µM and the TGI [18] was 9.2 µM. For the same molecule, the GI50 [19] was 2.47 µM, the TGI [19] was 16.7 µM and the GI50 [20] was 2.86 µM. For the same molecule, the TGI [20] was 9.48 µM, the GI50 [21] was 1.97 µM and the TGI [21] was 4.08 µM. For the same molecule, the GI50 [22] was 6.36 µM, the TGI [22] was 21.4 µM and the GI50 [23] was 7.32 µM. For the same molecule, the TGI [23] was 22.8 µM, the GI50 [24] was 3.27 µM and the TGI [24] was 16.8 µM. For the same molecule, the GI50 [25] was 2.44 µM, the TGI [25] was 7.39 µM and the GI50 [26] was 3.03 µM. The TGI [26] was 10 µM, the GI50 [27] was 3 µM and the TGI [27] was 10.3 µM. It also gave a GI50 [28] of 3.4 µM, a TGI [28] of 11.2 µM and a GI50 [29] of 4.12 µM. It also gave a TGI [29] of 19.6 µM, a GI50 [30] of 1.81 µM and a TGI [30] of 4.05 µM. It also gave a GI50 [31] of 1.82 µM, a TGI [31] of 4.44 µM and a GI50 [32] of 2.02 µM. It also gave a TGI [32] of 4.61 µM, a GI50 [33] of 2.11 µM and a TGI [33] of 40.3 µM. It also gave a GI50 [34] of 3.36 µM, a TGI [34] of 23.2 µM and a GI50 [35] of 2.15 µM. For the same molecule, the TGI [35] was 5.82 µM, the GI50 [36] was 2.58 µM and the TGI [36] was 18.2 µM. For the same molecule, the GI50 [37] was 1.03 µM, the TGI [37] was 5.24 µM and the GI50 [38] was 2.42 µM. It also gave a TGI [38] of 5.39 µM, a GI50 [39] of 2.53 µM and a TGI [39] of 7.61 µM. For the same molecule, the GI50 [40] was 2.51 µM, the TGI [40] was 6.15 µM and the GI50 [41] was 1.91 µM. It also gave a TGI [41] of 4.47 µM, a GI50 [42] of 6.93 µM and a TGI [42] of 23.2 µM. It also gave a GI50 [43] of 5.76 µM, a TGI [43] of 19.3 µM and a GI50 [44] of 6.74 µM. For the same molecule, the TGI [44] was 19.9 µM, the GI50 [45] was 3.97 µM and the TGI [45] was 26.4 µM. It also gave a GI50 [46] of 3.25 µM, a TGI [46] of 13.6 µM and a GI50 [47] of 3.2 µM. It also gave a TGI [47] of 15.2 µM, a GI50 [48] of 1.98 µM and a TGI [48] of 7.57 µM. It also gave a GI50 [49] of 1.27 µM, a TGI [49] of 6.48 µM and a GI50 [50] of 2.05 µM. It also gave a TGI [50] of 4.81 µM, a GI50 [51] of 3.23 µM and a TGI [51] of 26.1 µM. The GI50 [52] was 2.88 µM, the TGI [52] was 8.97 µM and the GI50 [53] was 1.58 µM. For the same molecule, the TGI [53] was 5.37 µM, the GI50 [54] was 7.06 µM and the TGI [54] was 22.1 µM. The GI50 [55] was 4.1 µM, the TGI [55] was 14.8 µM and the GI50 [56] was 2.32 µM. For the same molecule, the TGI [56] was 10.1 µM.

— PubChem BioAssay (NCI)
